Experimental data reported in ChEMBL document CHEMBL4000244, “Probing A-form DNA: A fluorescent aminosugar probe and dual recognition by anthraquinone-neomycin conjugates” (Bioorg Med Chem, 2017).

Experiments:
[1] = Binding affinity to 5'-GCGGCGGC-3' DNA hairpin assessed as change in fluorescence intensity at 1 uM after 45 mins by fluorescence quenching analysis relative to control
[2] = Binding affinity to 5'-CGGCCGGG-3' DNA hairpin assessed as change in fluorescence intensity at 1 uM after 45 mins by fluorescence quenching analysis relative to control
[3] = Binding affinity to 5'-CCCGCGGG-3' DNA hairpin assessed as change in fluorescence intensity at 1 uM after 45 mins by fluorescence quenching analysis relative to control
[4] = Binding affinity to 5'-GGGCGCCG-3' DNA hairpin assessed as change in fluorescence intensity at 1 uM after 45 mins by fluorescence quenching analysis relative to control
[5] = Binding affinity to 5'-CGGCCGCG-3' DNA hairpin assessed as change in fluorescence intensity at 1 uM after 45 mins by fluorescence quenching analysis relative to control
[6] = Binding affinity to 5'-CCCCCCGC-3' DNA hairpin assessed as change in fluorescence intensity at 1 uM after 45 mins by fluorescence quenching analysis relative to control
[7] = Binding affinity to d(G4C4)2 DNA major groove assessed as change in electrostatic potential at 10 uM at pH 4.65 to 9.78 by UV-Visible spectrophotometric method
[8] = Binding affinity to 5'-GCGGGCGG-3' DNA hairpin assessed as change in fluorescence intensity at 1 uM after 45 mins by fluorescence quenching analysis relative to control
[9] = Binding affinity to 5'-CCGCGCCG-3' DNA hairpin assessed as change in fluorescence intensity at 1 uM after 45 mins by fluorescence quenching analysis relative to control
[10] = Binding affinity to 5'-GCGCCGCG-3' DNA hairpin assessed as change in fluorescence intensity at 1 uM after 45 mins by fluorescence quenching analysis relative to control
[11] = Binding affinity to 5'-GGGCCGCC-3' DNA hairpin assessed as change in fluorescence intensity at 1 uM after 45 mins by fluorescence quenching analysis relative to control
[12] = Binding affinity to 5'-CCGGCGCC-3' DNA hairpin assessed as change in fluorescence intensity at 1 uM after 45 mins by fluorescence quenching analysis relative to control
[13] = Binding affinity to 5'-CGCCCGCC-3' DNA hairpin assessed as change in fluorescence intensity at 1 uM after 45 mins by fluorescence quenching analysis relative to control
[14] = Binding affinity to 5'-GGCGGGCC-3' DNA hairpin assessed as change in fluorescence intensity at 1 uM after 45 mins by fluorescence quenching analysis relative to control
[15] = Binding affinity to 5'-GGCCGGCC-3' DNA hairpin assessed as change in fluorescence intensity at 1 uM after 45 mins by fluorescence quenching analysis relative to control
[16] = Binding affinity to 5'-GGGCCCCG-3' DNA hairpin assessed as change in fluorescence intensity at 1 uM after 45 mins by fluorescence quenching analysis relative to control
[17] = Binding affinity to 5'-CGCCGCGC-3' DNA hairpin assessed as change in fluorescence intensity at 1 uM after 45 mins by fluorescence quenching analysis relative to control
[18] = Binding affinity to 5'-GGCGCGGC-3' DNA hairpin assessed as change in fluorescence intensity at 1 uM after 45 mins by fluorescence quenching analysis relative to control
[19] = Binding affinity to 5'-GGGCCGGC-3' DNA hairpin assessed as change in fluorescence intensity at 1 uM after 45 mins by fluorescence quenching analysis relative to control
[20] = Binding affinity to 5'-GCCCCCGC-3' DNA hairpin assessed as change in fluorescence intensity at 1 uM after 45 mins by fluorescence quenching analysis relative to control
[21] = Binding affinity to 5'-CGCGGCGC-3' DNA hairpin assessed as change in fluorescence intensity at 1 uM after 45 mins by fluorescence quenching analysis relative to control
[22] = Binding affinity to 5'-CGGGCGCG-3' DNA hairpin assessed as change in fluorescence intensity at 1 uM after 45 mins by fluorescence quenching analysis relative to control
[23] = Binding affinity to 5'-GGCGGGGG-3' DNA hairpin assessed as change in fluorescence intensity at 1 uM after 45 mins by fluorescence quenching analysis relative to control
[24] = Binding affinity to 5'-CGGGGGGG-3' DNA hairpin assessed as change in fluorescence intensity at 1 uM after 45 mins by fluorescence quenching analysis relative to control
[25] = Binding affinity to 5'-GCGCGCGG-3' DNA hairpin assessed as change in fluorescence intensity at 1 uM after 45 mins by fluorescence quenching analysis relative to control
[26] = Binding affinity to 5'-CCCGGGGG-3' DNA hairpin assessed as change in fluorescence intensity at 1 uM after 45 mins by fluorescence quenching analysis relative to control
[27] = Binding affinity to 5'-CGCGCCGG-3' DNA hairpin assessed as change in fluorescence intensity at 1 uM after 45 mins by fluorescence quenching analysis relative to control
[28] = Binding affinity to 5'-GCGGCGCC-3' DNA hairpin assessed as change in fluorescence intensity at 1 uM after 45 mins by fluorescence quenching analysis relative to control
[29] = Binding affinity to 5'-GCCCCGCC-3' DNA hairpin assessed as change in fluorescence intensity at 1 uM after 45 mins by fluorescence quenching analysis relative to control
[30] = Binding affinity to 5'-CGCGCGCC-3' DNA hairpin assessed as change in fluorescence intensity at 1 uM after 45 mins by fluorescence quenching analysis relative to control
[31] = Binding affinity to 5'-CCGCCCCC-3' DNA hairpin assessed as change in fluorescence intensity at 1 uM after 45 mins by fluorescence quenching analysis relative to control
[32] = Binding affinity to 5'-GCCCGGCG-3' DNA hairpin assessed as change in fluorescence intensity at 1 uM after 45 mins by fluorescence quenching analysis relative to control
[33] = Binding affinity to 5'-CGGCCGGC-3' DNA hairpin assessed as change in fluorescence intensity at 1 uM after 45 mins by fluorescence quenching analysis relative to control
[34] = Binding affinity to 5'-CCCCCCCG-3' DNA hairpin assessed as change in fluorescence intensity at 1 uM after 45 mins by fluorescence quenching analysis relative to control
[35] = Binding affinity to 5'-CCCCCGCC-3' DNA hairpin assessed as change in fluorescence intensity at 1 uM after 45 mins by fluorescence quenching analysis relative to control
[36] = Binding affinity to 5'-CCCCGGGG-3' DNA hairpin assessed as change in fluorescence intensity at 1 uM after 45 mins by fluorescence quenching analysis relative to control

**Q.** With NCC1O[C@H](O[C@H]2[C@@H](O)[C@H](O[C@@H]3[C@@H](O)[C@H](N)C[C@H](N)[C@H]3O[C@H]3O[C@H](CN)[C@@H](O)[C@H](O)[C@H]3N)O[C@@H]2CSCCNC(=O)CCSCC(=O)Nc2ccc(-c3c4ccc(=O)cc-4oc4cc(O)ccc34)c(C(=O)O)c2)[C@H](N)[C@@H](O)[C@@H]1O (stereo partly specified) as the molecule, how does the Activity [1] read?
**A.** The Activity was 47.7%.

**Q.** And the Activity [2]?
**A.** Its Activity is 41.4%.

**Q.** What about the Activity [3] of the same molecule?
**A.** Its Activity is 40.3%.

**Q.** What about the Activity [4] of the same molecule?
**A.** Its Activity is 50.6%.

**Q.** What about the Activity [5] of the same molecule?
**A.** Its Activity is 48.6%.

**Q.** And the Activity [6]?
**A.** Its Activity is 30.2%.

**Q.** What about the Activity [7] of the same molecule?
**A.** The Activity was -1.01 kT/e.

**Q.** And the Activity [8]?
**A.** Its Activity is 45%.

**Q.** What about the Activity [9] of the same molecule?
**A.** Its Activity is 53.7%.

**Q.** And the Activity [10]?
**A.** The Activity was 46.9%.

**Q.** What about the Activity [11] of the same molecule?
**A.** The Activity was 40%.

**Q.** What about the Activity [12] of the same molecule?
**A.** Its Activity is 48.9%.

**Q.** What about the Activity [13] of the same molecule?
**A.** Its Activity is 42%.

**Q.** What about the Activity [14] of the same molecule?
**A.** Its Activity is 53.2%.

**Q.** What about the Activity [15] of the same molecule?
**A.** The Activity was 45%.

**Q.** And the Activity [16]?
**A.** The Activity was 18.1%.

**Q.** What about the Activity [17] of the same molecule?
**A.** Its Activity is 46.6%.

**Q.** What about the Activity [18] of the same molecule?
**A.** Its Activity is 49.4%.

**Q.** And the Activity [19]?
**A.** The Activity was 44.4%.

**Q.** What about the Activity [20] of the same molecule?
**A.** Its Activity is 23.6%.

**Q.** And the Activity [21]?
**A.** The Activity was 52.5%.

**Q.** What about the Activity [22] of the same molecule?
**A.** Its Activity is 48.7%.

**Q.** What about the Activity [23] of the same molecule?
**A.** The Activity was 41.5%.

**Q.** And the Activity [24]?
**A.** The Activity was 35.9%.

**Q.** And the Activity [25]?
**A.** The Activity was 51.2%.

**Q.** What about the Activity [26] of the same molecule?
**A.** The Activity was 38.7%.

**Q.** And the Activity [27]?
**A.** Its Activity is 43.8%.

**Q.** What about the Activity [28] of the same molecule?
**A.** Its Activity is 49.9%.

**Q.** What about the Activity [29] of the same molecule?
**A.** The Activity was 40.2%.

**Q.** What about the Activity [30] of the same molecule?
**A.** The Activity was 52.2%.

**Q.** And the Activity [31]?
**A.** The Activity was 41.4%.

**Q.** What about the Activity [32] of the same molecule?
**A.** The Activity was 51.9%.

**Q.** And the Activity [33]?
**A.** Its Activity is 44.9%.

**Q.** What about the Activity [34] of the same molecule?
**A.** Its Activity is 19.9%.

**Q.** And the Activity [35]?
**A.** The Activity was 39.1%.

**Q.** What about the Activity [36] of the same molecule?
**A.** Its Activity is 32.7%.
